Reference: US10947237B2, “Antimicrobial compounds and methods of making and using the same” (BIOVERSYS AG, priority 2015, dated 2021)

Columns and labels:
[1] = system: Staphylococcus aureus (S. aureus) 11540 strain; assay: standard microdilution assay, minimum inhibitory concentration (MIC); assay type: cell-based; conditions: Table 2, 11540 strain
Outline: (§1)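 MICs were determined by broth microdilution per CLSI protocols (M7-A8, M100-S20), with reference strains run for quality control. Tested strains were E. coli ATCC25922 and S. aureus 11540. Activity was scored +/− against a 16 µg/mL cutoff.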

[2] = system: Eschericia coli (E. Coli) strain ATCC25922; assay: as above; assay type: cell-based; conditions: Escherichia coli; Table 2; strain ATCC25922
Outline: as §1

SMILES | MIC [1] [µg/mL] | MIC [2] [µg/mL]
CC1=NC[C@@H](CCNC(=N)N)N1Cc1ccc(-n2cc3cc(-c4cc(CCC[C@H](C)N)cc(Cl)c4F)[nH]c3nc2=O)cc1 [Compound 77] | ≤ 16 | ≤ 16
C=C[C@H]1C[C@@H](CCNC(=N)N)O[C@H](c2ccc(-n3cc4cc(-c5cc(CCC[C@H](C)N)cc(Cl)c5F)[nH]c4nc3=O)cc2)C1 [Compound 78] | ≤ 16 | ≤ 16
C=C[C@H]1C[C@@H](CCNC(=N)N)O[C@H](c2ccc(-n3cc4cc(C5CCNC5)[nH]c4nc3=O)cc2)C1 (stereo partly drawn) [Compound 79] | > 16 | > 16
C=C[C@H]1C[C@@H](CCNC(=N)N)O[C@H](c2ccc(-n3cc4cc(C5CCN(C(=N)N)C5)[nH]c4nc3=O)cc2)C1 (stereo partly drawn) [Compound 80] | > 16 | > 16
CCC(=N)NCC[C@@H]1CCC[C@@H](c2ccc(-n3cc4cc(-c5cc(CCC[C@H](C)N)cc(Cl)c5F)[nH]c4nc3=O)cc2)N1 [Compound 81] | ≤ 16 | ≤ 16
CC(C)C(=N)NCC[C@@H]1CCC[C@@H](c2ccc(-n3cc4cc(-c5cc(CCC[C@H](C)N)cc(Cl)c5F)[nH]c4nc3=O)cc2)N1 [Compound 82] | ≤ 16 | ≤ 16
C[C@H](N)CCCc1cc(Cl)c(F)c(-c2cc3cn(-c4ccc([C@@H]5CCC[C@@H](CCNC(=N)C6CC6)N5)cc4)c(=O)nc3[nH]2)c1 [Compound 83] | ≤ 16 | ≤ 16
C[C@H](N)CCCc1cc(Cl)c(F)c(-c2cc3cn(-c4ccc([C@@H]5CCC[C@@H](CCNC(=N)C6CCC6)N5)cc4)c(=O)nc3[nH]2)c1 [Compound 84] | ≤ 16 | ≤ 16
C[C@H](N)CCCc1cc(Cl)c(F)c(-c2cc3cn(-c4ccc([C@@H]5CCC[C@@H](CCNC(=N)CF)N5)cc4)c(=O)nc3[nH]2)c1 [Compound 85] | ≤ 16 | ≤ 16
C[C@H](N)CCCc1cc(Cl)c(F)c(-c2cc3cn(-c4ccc([C@@H]5CCC[C@@H](CCNC(=N)CCl)N5)cc4)c(=O)nc3[nH]2)c1 [Compound 86] | ≤ 16 | ≤ 16
C[C@H](N)CCCc1cc(Cl)c(F)c(-c2cc3cn(-c4ccc([C@H]5CC(CCNC(=N)N)CC(CO)O5)cc4)c(=O)nc3[nH]2)c1 (stereo partly drawn) [Compound 87] | ≤ 16 | ≤ 16
C[C@H](N)CCCc1cc(Cl)c(F)c(-c2cc3cn(-c4ccc([C@@H]5CC(CCNC(=N)N)CC(CO)O5)cc4)c(=O)nc3[nH]2)c1 (stereo partly drawn) [Compound 88] | ≤ 16 | ≤ 16
C[C@H](N)CCCc1cc(Cl)c(F)c(-c2cc3cn(-c4ccc([C@@H]5C/C(=C/CNC(=N)N)CC(CO)O5)cc4)c(=O)nc3[nH]2)c1 (stereo partly drawn) [Compound 89] | ≤ 16 | ≤ 16
C[C@H](N)CCCc1cc(Cl)c(F)c(-c2cc3cn(-c4ccc(CN[C@H](CCNC(=N)N)CNc5cc(F)ccn5)cc4)c(=O)nc3[nH]2)c1 [Compound 91] | ≤ 16 | ≤ 16
C[C@H](N)CCCc1cc(Cl)c(F)c(-c2cc3cn(-c4ccc(N5CCOC(CCNC(=N)N)C5)cc4)c(=O)nc3[nH]2)c1 (stereo partly drawn) [Compound 92] | ≤ 16 | ≤ 16
C=C[C@@H](CCNC(=N)N)OCc1ccc(-n2cc3cc(CCNC4CCNCC4)[nH]c3nc2=O)cc1 [Compound 93] | > 16 | > 16
O=c1nc2[nH]c(C3CCNC3)cc2cn1-c1ccc([C@@H]2CCC[C@@H](CCNc3ncc[nH]3)N2)cc1 (stereo partly drawn) [Compound 94] | > 16 | ≤ 16
O=c1nc2[nH]c(CCNC3CCNCC3)cc2cn1-c1ccc([C@@H]2CCC[C@@H](CCNc3ncc[nH]3)N2)cc1 [Compound 95] | ≤ 16 | ≤ 16
C[C@H](N)CCCc1cc(Cl)c(F)c(-c2cc3cn(-c4ccc([C@H]5C[C@H](CCNC(=N)N)C[C@H](CN)O5)cc4)c(=O)nc3[nH]2)c1 [Compound 96] | ≤ 16 | ≤ 16
CC(=N)NCC[C@@H]1C[C@H](CN)O[C@@H](c2ccc(-n3cc4cc(-c5cc(CCC[C@H](C)N)cc(Cl)c5F)[nH]c4nc3=O)cc2)C1 [Compound 97] | ≤ 16 | ≤ 16
N=C(N)NCC[C@@H]1C[C@H](CN)O[C@@H](c2ccc(-n3cc4cc(C5CCNC5)[nH]c4nc3=O)cc2)C1 (stereo partly drawn) [Compound 98] | > 16 | > 16
N=C(N)NCC[C@@H]1C[C@H](CN)O[C@@H](c2ccc(-n3cc4cc(CCNC5CCNCC5)[nH]c4nc3=O)cc2)C1 [Compound 99] | > 16 | ≤ 16
C[C@H](N)CCCc1cc(-c2[nH]c3nc(=O)n(-c4ccc([C@H](C)NCCCNC(=N)N)cc4)cc3c2[N+](=O)[O-])c(F)c(Cl)c1[N+](=O)[O-] [Compound 110] | > 16 | > 16
C[C@H](N)CCCc1cc(Cl)c(F)c(-c2[nH]c3nc(=O)n(-c4ccc([C@H](C)NCCCNC(=N)N)cc4)cc3c2[N+](=O)[O-])c1[N+](=O)[O-] [Compound 111] | ≤ 16 | > 16

Continued, values first:

MIC [1] [µg/mL] | MIC [2] [µg/mL] | SMILES
≤ 16 | ≤ 16 | N=C(N)NCC[C@@H]1CCC[C@@H](c2ccc(-n3cc4cc(C5CCNC5)[nH]c4nc3=O)cc2)N1 (stereo partly drawn) [Compound 100]
≤ 16 | ≤ 16 | N=C(N)NCC[C@@H]1CCC[C@@H](c2ccc(-n3cc4cc(CCNC5CCNCC5)[nH]c4nc3=O)cc2)N1 [Compound 101]
≤ 16 | ≤ 16 | O=c1nc2[nH]c(CCNC3CCNCC3)cc2cn1-c1ccc([C@@H]2CCC[C@@H](CCc3ncc[nH]3)N2)cc1 [Compound 102]
> 16 | > 16 | N=C(N)NCC[C@H](CNc1ccccn1)OCc1ccc(-n2cc3cc(C4CCNC4)[nH]c3nc2=O)cc1 (stereo partly drawn) [Compound 103]
≤ 16 | ≤ 16 | N=C(N)NCC[C@H](CNc1ncc[nH]1)OCc1ccc(-n2cc3cc(CCNC4CCNCC4)[nH]c3nc2=O)cc1 [Compound 104]
> 16 | > 16 | N=C(N)NCC[C@H](CNc1ccccn1)OCc1ccc(-n2cc3cc(CCNC4CCNCC4)[nH]c3nc2=O)cc1 [Compound 105]
≤ 16 | ≤ 16 | C[C@H](N)CCCc1cc(Cl)c(F)c(-c2cc3cn(-c4ccc(CN[C@H](CCNC(=N)N)CNc5ncccc5F)cc4)c(=O)nc3[nH]2)c1 [Compound 106]
≤ 16 | ≤ 16 | C[C@H](N)CCCc1cc(Cl)c(F)c(-c2cc3cn(-c4ccc(CN[C@@H](CF)CCNC(=N)N)cc4)c(=O)nc3[nH]2)c1 [Compound 107]
≤ 16 | ≤ 16 | C[C@H](N)CCCc1cc(Cl)c(F)c(-c2cc3cn(-c4ccc([C@@H]5C[C@H](Nc6nccs6)C[C@@H](CCNC(=N)N)O5)cc4)c(=O)nc3[nH]2)c1 [Compound 108]
≤ 16 | > 16 | C[C@H](N)CCCc1cc(Cl)c(F)c(-c2[nH]c3nc(=O)n(-c4ccc(CN[C@H](C)CCNC(=N)N)cc4)cc3c2[N+](=O)[O-])c1 [Compound 109]
> 16 | > 16 | C[C@@H](CCNC(=N)N)OCc1ccc(-n2cc3cc(CCNC4CCNCC4)[nH]c3nc2=O)cc1 [Compound 112]
> 16 | ≤ 16 | N=C(N)NCC[C@H](CNc1ncc[nH]1)OCc1ccc(-n2cc3cc(C4CCNC4)[nH]c3nc2=O)cc1 (stereo partly drawn) [Compound 113]
≤ 16 | ≤ 16 | N=C(N)NCC[C@H](CNC(=N)N)OCc1ccc(-n2cc3cc(CCNC4CCNCC4)[nH]c3nc2=O)cc1 [Compound 114]
≤ 16 | ≤ 16 | CC(=N)NCC[C@@H]1CCC[C@@H](c2ccc(-n3cc4cc(C5CCNC5)[nH]c4nc3=O)cc2)N1 (stereo partly drawn) [Compound 115]
> 16 | > 16 | CC1=NCC[C@@H]2CCC[C@@H](c3ccc(-n4cc5cc(C6CCNC6)[nH]c5nc4=O)cc3)N12 (stereo partly drawn) [Compound 116]
≤ 16 | ≤ 16 | CC(=N)NCC[C@@H]1CCC[C@@H](c2ccc(-n3cc4cc(CCNC5CCNCC5)[nH]c4nc3=O)cc2)N1 [Compound 117]
> 16 | > 16 | CC1=NCC[C@@H]2CCC[C@@H](c3ccc(-n4cc5cc(CCNC6CCNCC6)[nH]c5nc4=O)cc3)N12 [Compound 118]
≤ 16 | ≤ 16 | C[C@H](N)CCCc1cc(Cl)c(F)c(-c2cc3cn(-c4ccc([C@H]5CC(N)C[C@H](CCNC(=N)N)O5)cc4)c(=O)nc3[nH]2)c1 (stereo partly drawn) [Compound 119]
≤ 16 | ≤ 16 | CC(=N)NCC[C@H]1CC(N)C[C@H](c2ccc(-n3cc4cc(-c5cc(CCC[C@H](C)N)cc(Cl)c5F)[nH]c4nc3=O)cc2)O1 (stereo partly drawn) [Compound 120]
> 16 | ≤ 16 | N=C(N)NCC[C@H]1CC(N)C[C@H](c2ccc(-n3cc4cc(C5CCNC5)[nH]c4nc3=O)cc2)O1 (stereo partly drawn) [Compound 121]
≤ 16 | ≤ 16 | N=C(N)NCC[C@H]1CC(N)C[C@H](c2ccc(-n3cc4cc(CCNC5CCNCC5)[nH]c4nc3=O)cc2)O1 (stereo partly drawn) [Compound 122]
≤ 16 | > 16 | C[C@H](N)CCCc1cc(Cl)c(F)c(-c2cc3cn(-c4ccc([C@@H]5C[C@@H](Nc6nccs6)C[C@@H](CCNC(=N)N)O5)cc4)c(=O)nc3[nH]2)c1 [Compound 123]
> 16 | > 16 | N=C(N)NCC[C@@H]1C[C@H](Nc2nccs2)C[C@@H](c2ccc(-n3cc4cc(C5CCNC5)[nH]c4nc3=O)cc2)O1 (stereo partly drawn) [Compound 124]
> 16 | > 16 | N=C(N)NCC[C@@H]1C[C@@H](Nc2nccs2)C[C@@H](c2ccc(-n3cc4cc(C5CCNC5)[nH]c4nc3=O)cc2)O1 (stereo partly drawn) [Compound 125]
> 16 | > 16 | N=C(N)NCC[C@H](CF)NCc1ccc(-n2cc3cc(C4CCNC4)[nH]c3nc2=O)cc1 (stereo partly drawn) [Compound 126]
≤ 16 | ≤ 16 | C[C@H](N)CCCc1cc(Cl)c(F)c(-c2cc3cn(-c4ccc([C@H]5CC(N)C[C@H](CCN)O5)cc4)c(=O)nc3[nH]2)c1 (stereo partly drawn) [Compound 127]
≤ 16 | ≤ 16 | C[C@H](N)CCCc1cc(Cl)c(F)c(-c2cc3cn(-c4ccc([C@H]5CC(NC(=N)N)C[C@H](CCNC(=N)N)O5)cc4)c(=O)nc3[nH]2)c1 (stereo partly drawn) [Compound 128]
